Experimental data taken from publication PMC11012124, “Synthesis of Novel Triazine-Based Chalcones and 8,9-dihydro-7H-pyrimido[4,5-b][1,4]diazepines as Potential Leads in the Search of Anticancer, Antibacterial and Antifungal Agents” (International Journal of Molecular Sciences, 2024).

How the values were obtained:
[1] = system: OVCAR-8; assay: cells; conditions: Homo sapiens, OVCAR-8, 48 h; for CC50: read-out: LC50
[2] = system: SR; assay: cells; conditions: Homo sapiens, 48 h; for CC50: read-out: LC50
[3] = system: NCI-H522; assay: cells; conditions: Homo sapiens, NCI-H522, 48 h; for CC50: read-out: LC50
[4] = system: RPMI-8226; assay: cells; conditions: Homo sapiens, RPMI-8226, 48 h; for CC50: read-out: LC50
[5] = system: SF-539; assay: cells; conditions: Homo sapiens, SF-539, 48 h; for CC50: read-out: LC50, SF-539, 48 h
[6] = system: SNB-75; assay: cells; conditions: Homo sapiens, SNB-75, 48 h; for CC50: read-out: LC50
[7] = system: SNB-19; assay: cells; conditions: Homo sapiens, SNB-19, 48 h; for CC50: read-out: LC50
[8] = system: NCI-H322M; assay: cells; conditions: Homo sapiens, 48 h; for CC50: read-out: LC50
[9] = system: MDA-MB-435; assay: cells; conditions: Homo sapiens, MDA-MB-435, 48 h; for CC50: read-out: LC50
[10] = system: DU-145; assay: cells; conditions: Homo sapiens, DU-145, 48 h; for CC50: read-out: LC50
[11] = system: HL-60(TB); assay: cells; conditions: Homo sapiens, HL-60, 48 h; for CC50: read-out: LC50
[12] = system: M14; assay: cells; conditions: Homo sapiens, M14, 48 h; for CC50: read-out: LC50
[13] = system: UACC-62; assay: cells; conditions: Homo sapiens, UACC-62, 48 h; for CC50: read-out: LC50
[14] = system: BT-549; assay: cells; conditions: Homo sapiens, BT-549, 48 h; for CC50: read-out: LC50
[15] = system: TK-10; assay: cells; conditions: Homo sapiens, TK-10, 48 h; for CC50: read-out: LC50
[16] = system: SN12C; assay: cells; conditions: Homo sapiens, 48 h; for CC50: read-out: LC50
[17] = system: HS 578T; assay: cells; conditions: Homo sapiens, 48 h; for CC50: read-out: LC50
[18] = system: NCI-H226; assay: cells; conditions: Homo sapiens, NCI-H226, 48 h; for CC50: read-out: LC50
[19] = system: MDA-MB-468; assay: cells; conditions: Homo sapiens, MDA-MB-468, 48 h; for CC50: read-out: LC50
[20] = system: NCI/ADR-RES; assay: cells; conditions: Homo sapiens, 48 h; for CC50: read-out: LC50
[21] = system: 60 cancer cell lines; assay: NCI-60 one-dose screen (10 μM); assay type: cell-based; conditions: Homo sapiens; one dose of 10 μM, mean over 60 cancer cell lines; read-out: Mean Growth Percent (MGP)
From the text: Additionally, the mean of the growth percentages (MGP) of each compound against all the 60 cancer cell lines is also reported, which is used as one of the selection criteria to continue with tests at five concentration doses.

[22] = system: MCF7; assay: cells; conditions: Homo sapiens, MCF7, 48 h; for CC50: read-out: LC50
[23] = system: UACC-257; assay: cells; conditions: Homo sapiens, UACC-257, 48 h; for CC50: read-out: LC50
[24] = system: OVCAR-4; assay: cells; conditions: Homo sapiens, OVCAR-4, 48 h; for CC50: read-out: LC50

COc1cc(/C=C/C(=O)c2ccc(C)cc2)ccc1Oc1nc(NCCO)nc(N2CCOCC2)n1 [20b]
GI50 [1]: 1.76 µM
GI50 [2]: 1.06 µM
CC50 [2]: > 100 µM
GI50 [3]: 1.56 µM
GI50 [4]: 1.72 µM
CC50 [4]: > 100 µM
GI50 [5]: 1.88 µM
GI50 [6]: > 100 µM
CC50 [6]: > 100 µM
GI50 [7]: 2.45 µM
CC50 [7]: > 100 µM
GI50 [8]: 6.24 µM
CC50 [8]: > 100 µM
GI50 [9]: 3.31 µM
CC50 [9]: > 100 µM
GI50 [10]: 3.79 µM
CC50 [10]: > 100 µM
GI50 [11]: 2.07 µM
CC50 [11]: > 100 µM
GI50 [12]: 2.03 µM
CC50 [12]: > 100 µM
GI50 [13]: 2.01 µM
GI50 [14]: 1.62 µM
GI50 [15]: > 100 µM
CC50 [15]: > 100 µM
GI50 [16]: 2.35 µM
CC50 [16]: > 100 µM
GI50 [17]: 4.6 µM
CC50 [17]: > 100 µM
GI50 [18]: 6.28 µM
CC50 [18]: > 100 µM
GI50 [19]: 1.98 µM
GI50 [20]: 2.08 µM
CC50 [20]: > 100 µM
activity at 10 µM [21]: 48.9%
GI50 [22]: 1.5 µM
CC50 [22]: > 100 µM
GI50 [23]: 3.98 µM
CC50 [23]: > 100 µM
GI50 [24]: 3.92 µM
CC50 [24]: > 100 µM

COc1cc(/C=C/C(=O)c2cc(OC)c(OC)c(OC)c2)ccc1Oc1nc(NCCO)nc(N2CCOCC2)n1 [20d]
GI50 [1]: 2.56 µM
CC50 [1]: 34.7 µM
GI50 [2]: 0.784 µM
CC50 [2]: > 100 µM
GI50 [3]: 1.56 µM
CC50 [3]: 6.43 µM
GI50 [4]: 1.63 µM
CC50 [4]: > 100 µM
GI50 [5]: 1.88 µM
CC50 [5]: 13 µM
GI50 [6]: 1.79 µM
CC50 [6]: 24.2 µM
GI50 [7]: 2.31 µM
CC50 [7]: 29.9 µM
GI50 [8]: 2.91 µM
CC50 [8]: 29.3 µM
GI50 [9]: 3.1 µM
CC50 [9]: 35.1 µM
GI50 [10]: 2.99 µM
CC50 [10]: 35.3 µM
GI50 [11]: 1.54 µM
CC50 [11]: > 100 µM
GI50 [12]: 2.38 µM
CC50 [12]: 37.9 µM
GI50 [13]: 1.69 µM
CC50 [13]: 6.03 µM
GI50 [14]: 1.6 µM
CC50 [14]: 6.88 µM
GI50 [15]: 3.12 µM
CC50 [15]: 30.6 µM
GI50 [16]: 1.79 µM
CC50 [16]: 23.3 µM
GI50 [17]: 3.62 µM
CC50 [17]: > 100 µM
GI50 [18]: 3.69 µM
CC50 [18]: > 100 µM
GI50 [19]: 1.71 µM
CC50 [19]: 14.3 µM
GI50 [20]: 4.72 µM
CC50 [20]: 95.9 µM
activity at 10 µM [21]: 0.79%
GI50 [22]: 1.72 µM
CC50 [22]: 61.5 µM
GI50 [23]: 2.83 µM
CC50 [23]: 36.7 µM
GI50 [24]: 2.92 µM
CC50 [24]: 33.4 µM

COc1cc(/C=C/C(=O)c2ccccc2)ccc1Oc1nc(Nc2ccc(F)cc2)nc(N(C)C)n1 [21a]
GI50 [1]: 5.9 µM
CC50 [1]: 97.6 µM
GI50 [2]: 2.9 µM
CC50 [2]: > 100 µM
GI50 [3]: 5.15 µM
CC50 [3]: > 100 µM
GI50 [4]: 2.83 µM
CC50 [4]: > 100 µM
GI50 [5]: 13.8 µM
CC50 [5]: 51.7 µM
GI50 [6]: 4.7 µM
CC50 [6]: > 100 µM
GI50 [7]: 10.2 µM
CC50 [7]: 74.9 µM
GI50 [8]: 28.7 µM
CC50 [8]: > 100 µM
GI50 [9]: 7.39 µM
CC50 [9]: 94.3 µM
GI50 [10]: 27.3 µM
CC50 [10]: > 100 µM
GI50 [11]: 8.37 µM
CC50 [11]: > 100 µM
GI50 [12]: 13 µM
CC50 [12]: > 100 µM
GI50 [13]: 4.99 µM
CC50 [13]: 79.4 µM
GI50 [14]: 12 µM
CC50 [14]: 68.1 µM
GI50 [15]: 18 µM
CC50 [15]: > 100 µM
GI50 [16]: 7.32 µM
CC50 [16]: 54.5 µM
GI50 [17]: 5.44 µM
CC50 [17]: > 100 µM
GI50 [18]: 4.94 µM
CC50 [18]: 64.9 µM
GI50 [19]: 3.21 µM
CC50 [19]: > 100 µM
GI50 [20]: 7.04 µM
CC50 [20]: 58.5 µM
activity at 10 µM [21]: 24.6%
GI50 [22]: 3.08 µM
CC50 [22]: 78.2 µM
GI50 [23]: 6.44 µM
CC50 [23]: > 100 µM
GI50 [24]: 5.85 µM
CC50 [24]: > 100 µM
